# According to US20240252488A1 (KOREA RESEARCH INSTITUTE OF CHEMICAL TECHNOLOGY, priority 2020, published 2024):
# Assays:
# MLKL [1] = biological target: T1, MLKL (Homo sapiens, UniProt Q8NB16); assay: MLKL degradation assay in HepG2 cell line (western blot); format: cell-based; parameters: endogenous in cells; host or cells: HepG2 or HaCaT; conditions: cell line not given; for Degradation assay (Degradation %) 1 μM: compound 1 μM; for Degradation assay (Degradation %) 10 μM: compound 10 μM
# T1 sequence (Q8NB16 1-471): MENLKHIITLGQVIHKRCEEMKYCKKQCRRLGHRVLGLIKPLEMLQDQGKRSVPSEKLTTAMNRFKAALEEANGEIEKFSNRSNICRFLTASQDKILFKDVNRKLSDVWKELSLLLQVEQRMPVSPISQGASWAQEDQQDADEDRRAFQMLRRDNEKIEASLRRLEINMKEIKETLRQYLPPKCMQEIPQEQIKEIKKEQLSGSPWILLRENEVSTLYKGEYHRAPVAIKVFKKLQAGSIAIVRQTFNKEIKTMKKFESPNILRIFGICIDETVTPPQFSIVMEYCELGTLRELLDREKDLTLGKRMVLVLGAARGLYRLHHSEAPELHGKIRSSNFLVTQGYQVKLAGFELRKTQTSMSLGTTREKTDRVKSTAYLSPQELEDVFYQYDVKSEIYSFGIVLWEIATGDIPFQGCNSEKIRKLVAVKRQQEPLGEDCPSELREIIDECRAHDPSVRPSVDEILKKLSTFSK
# In short: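 HepG2, cpd final 1 or 10 μM, 20-24 h, 37 °C/5% CO2; RIPA lysis, BCA-normalized, 10-15 μg/lane SDS-PAGE, western blot, ECL read-out.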
# FADD−/− Jurkat cells = assay: Necroptosis inhibition assay, TNF-α-induced necroptosis (CellTiter-Glo 2.0); format: cell-based, human; conditions: TNF-α 15 ng/mL; for Necroptosis inhibition assay (Rescue %) 1 μM: compound 1 μM; for Necroptosis inhibition assay (Rescue %) 10 μM: compound 10 μM
# In short: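 Cmpd 0.1/1/10 μM final, 30 min RT preincubation; TNF-α 15 ng/mL final; 20–24 h, 37° C, 5% CO2. Readout: ATP luminescence (reagent 1:3 in PBS), 0.5 s/well. Cytotoxicity and % necroptosis inhibition calculated from signal.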
# MLKL [2] = biological target: T1, MLKL; assay: Measurement of binding affinity with MLKL receptor (competitive binding assay, Kd); parameters: made in house; host or cells: HEK 293 cell line (T7 phage in E. coli BL21-derived host is also described)
# In short: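 Kd comes from a bead-based competition format: compound-dependent loss of DNA-tagged, HEK 293-expressed MLKL capture, measured as eluate kinase by qPCR. Final DMSO is 0.9%.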
SMILES,Degradation assay (Degradation %) 1 μM (MLKL [1]) [%],Degradation assay (Degradation %) 10 μM (MLKL [1]) [%],Kd (MLKL [2]) [nM],Necroptosis inhibition assay (Rescue %) 1 μM (FADD−/− Jurkat cells) [%],Necroptosis inhibition assay (Rescue %) 10 μM (FADD−/− Jurkat cells) [%],Necroptosis inhibition assay (Rescue %) 1 μM (FADD−/− Jurkat cells; FADD−/− Jurkat cells) [%],Necroptosis inhibition assay (Rescue %) 10 μM (FADD−/− Jurkat cells; FADD−/− Jurkat cells) [%]
"COc1ccc(C(=O)N2CCC(CCN3CCC(n4cc(-c5cnc(N)c(C(=O)O[C@@H](C(=O)Nc6ccc(F)cc6)c6ccccc6)n5)cn4)CC3)CC2)cc1N1CCC(=O)NC1=O [TDH-446, (R)-2-((4-fluorophenyl)amino)-2-oxo-1-phenylethyl 3-amino-6-(1-(1-(2-(1-(3-(2,4-dioxotetrahydropyrimidin-1(2H)-yl)-4-methoxybenzoyl)piperidin-4-yl)ethyl)piperidin-4-yl)-1H-pyrazol-4-yl)pyrazine-2-carboxylate]",57.4,17.94,0.22,,,34.93,8.47
"Nc1ncc(-c2cnn(C3CCN(CCCN4CCN(C(=O)C5CCN(C6=CC(=O)N(C7CCC(=O)NC7=O)C6=O)CC5)CC4)CC3)c2)nc1C(=O)O[C@@H](C(=O)Nc1ccc(F)cc1)c1ccccc1 (stereo partly drawn) [TDH-526, (R)-2-((4-fluorophenyl)amino)-2-oxo-1-phenylethyl 3-amino-6-(1-(1-(3-(4-(1-(1-(2,6-dioxopiperidin-3-yl)-2,5-dioxo-2,5-dihydro-1H-pyrrol-3-yl)piperidine-4-carbonyl)piperazin-1-yl)propyl)piperidin-4-yl)-1H-pyrazol-4-yl)pyrazine-2-carboxylate]",67.25,81.42,1.2,,,57.37,22.77
"Nc1ncc(-c2cnn(C3CCN(C(=O)CC4CCN(C(=O)C5CCN(c6ccc7nnn(C8CCC(=O)NC8=O)c(=O)c7c6)CC5)CC4)CC3)c2)nc1C(=O)O[C@@H](C(=O)Nc1ccc(F)cc1)c1ccccc1 (stereo partly drawn) [TDH-407, (R)-2-((4-fluorophenyl)amino)-2-oxo-1-phenylethyl 3-amino-6-(1-(1-(2-(1-(1-(3-(2,6-dioxopiperidin-3-yl)-4-oxo-3,4-dihydrobenzo[d][1,2,3]triazin-6-yl)piperidine-4-carbonyl)piperidin-4-yl)acetyl)piperidin-4-yl)-1H-pyrazol-4-yl)pyrazine-2-carboxylate]",83.70,79.77,7.5,,,52.02,42.95
"Nc1ncc(-c2cnn(C3CCN(CCCN4CCN(c5cccc6c5C(=O)N(C5CCC(=O)NC5=O)C6=O)CC4)CC3)c2)nc1C(=O)OC(C(=O)Nc1ccc(F)cc1)c1ccccc1 (centres unmarked) [TDH-245, 2-((4-fluorophenyl)amino)-2-oxo-1-phenylethyl 3-amino-6-(1-(1-(3-(4-(2-(2,6-dioxopiperidin-3-yl)-1,3-dioxoisoindolin-4-yl)piperazin-1-yl)propyl)piperidin-4-yl)-1H-pyrazol-4-yl)pyrazine-2-carboxylate]",67.67,62.75,3.6,65.75,14.51,,
"Nc1ncc(-c2cnn(C3CCN(C(=O)COCCOCCNc4cccc5c4C(=O)N(C4CCC(=O)NC4=O)C5=O)CC3)c2)nc1C(=O)O[C@@H](C(=O)Nc1ccc(F)cc1)c1ccccc1 (stereo partly drawn) [TDH-104, (R)-2-((4-fluorophenyl)amino)-2-oxo-1-phenylethyl 3-amino-6-(1-(1-(2-(2-(2-((2-(2,6-dioxopiperidin-3-yl)-1,3-dioxoisoindolin-4-yl)amino)ethoxy)ethoxy)acetyl)piperidin-4-yl)-1H-pyrazol-4-yl)pyrazine-2-carboxylate]",14.79,62.43,48,25.6,22.88,,

# The next lines start with results.
Degradation assay (Degradation %) 1 μM (MLKL [1]) [%],Degradation assay (Degradation %) 10 μM (MLKL [1]) [%],Kd (MLKL [2]) [nM],SMILES,Necroptosis inhibition assay (Rescue %) 1 μM (FADD−/− Jurkat cells) [%],Necroptosis inhibition assay (Rescue %) 10 μM (FADD−/− Jurkat cells) [%],Necroptosis inhibition assay (Rescue %) 1 μM (FADD−/− Jurkat cells; FADD−/− Jurkat cells) [%],Necroptosis inhibition assay (Rescue %) 10 μM (FADD−/− Jurkat cells; FADD−/− Jurkat cells) [%]
85.96,82.98,1.3,"Nc1ncc(-c2cnn(C3CCN(CCC4CCN(C(=O)COc5ccc6c(c5)C(=O)N(C5CCC(=O)NC5=O)C6=O)CC4)CC3)c2)nc1C(=O)O[C@@H](C(=O)Nc1ccc(F)cc1)c1ccccc1 (stereo partly drawn) [TDH-201, (R)-2-((4-fluorophenyl)amino)-2-oxo-1-phenylethyl 3-amino-6-(1-(1-(2-(1-(2-((2-(2,6-dioxopiperidin-3-yl)-1,3-dioxoisoindolin-5-yl)oxy)acetyl)piperidin-4-yl)ethyl)piperidin-4-yl)-1H-pyrazol-4-yl)pyrazine-2-carboxylate]",91.53,62.79,,
64.63,75.28,1.4,"Nc1ncc(-c2cnn(C3CCN(C(=O)C4CCN(C(=O)COc5ccc6c(c5)C(=O)N(C5CCC(=O)NC5=O)C6=O)CC4)CC3)c2)nc1C(=O)OC(C(=O)Nc1ccc(F)cc1)c1ccccc1 (centres unmarked) [TDH-278, 2-((4-fluorophenyl)amino)-2-oxo-1-phenylethyl 3-amino-6-(1-(1-(1-(2-((2-(2,6-dioxopiperidin-3-yl)-1,3-dioxoisoindolin-5-yl)oxy)acetyl)piperidine-4-carbonyl)piperidin-4-yl)-1H-pyrazol-4-yl)pyrazine-2-carboxylate]",63.64,39.23,,
82.06,64.50,5.9,"Nc1ncc(-c2cnn(C3CCN(C(=O)CCC4CCN(c5cccc6c5C(=O)N(C5CCC(=O)NC5=O)C6=O)CC4)CC3)c2)nc1C(=O)O[C@@H](C(=O)Nc1ccc(F)cc1)c1ccccc1 (stereo partly drawn) [TDH-419, (R)-2-((4-fluorophenyl)amino)-2-oxo-1-phenylethyl 3-amino-6-(1-(1-(3-(1-(2-(2,6-dioxopiperidin-3-yl)-1,3-dioxoisoindolin-4-yl)piperidin-4-yl)propanoyl)piperidin-4-yl)-1H-pyrazol-4-yl)pyrazine-2-carboxylate]",,,26.56,18.52
60.83,94.76,2.8,"Nc1ncc(-c2cnn(C3CCN(C(=O)COC4CCN(C(=O)COc5ccc6c(c5)C(=O)N(C5CCC(=O)NC5=O)C6=O)CC4)CC3)c2)nc1C(=O)O[C@@H](C(=O)Nc1ccc(F)cc1)c1ccccc1 (stereo partly drawn) [TDH-394, (R)-2-((4-fluorophenyl)amino)-2-oxo-1-phenylethyl 3-amino-6-(1-(1-(2-((1-(2-((2-(2,6-dioxopiperidin-3-yl)-1,3-dioxoisoindolin-5-yl)oxy)acetyl)piperidin-4-yl)oxy)acetyl)piperidin-4-yl)-1H-pyrazol-4-yl)pyrazine-2-carboxylate]",47.22,53.54,,
46.29,48.24,1.4,"Nc1ncc(-c2cnn(C3CCN(CC4CCN(C(=O)COc5cccc6c5C(=O)N(C5CCC(=O)NC5=O)C6=O)CC4)CC3)c2)nc1C(=O)O[C@@H](C(=O)Nc1ccc(F)cc1)c1ccccc1 (stereo partly drawn) [TDH-148, (R)-2-((4-fluorophenyl)amino)-2-oxo-1-phenylethyl 3-amino-6-(1-(1-((1-(2-((2-(2,6-dioxopiperidin-3-yl)-1,3-dioxoisoindolin-4-yl)oxy)acetyl)piperidin-4-yl)methyl)piperidin-4-yl)-1H-pyrazol-4-yl)pyrazine-2-carboxylate]",54.25,15.48,,
